Reference: patent US20200030284A1, “MEDICAL USE OF ARTEMISININ DERIVATIVE FOR TREATING INFLAMMATORY BOWEL DISEASE” (SHANGHAI INSTITUTE OF MATERIA MEDICA,CHINESE ACADEMY OF …, priority 2017, published 2020)
Structures can show the parent of a compound that is named as a salt.

How the values were obtained:
Format in all cases: in vivo, Balb/c mice
[1] = test system: CD11b+ monocytes in colon tissue of DSS-induced colitis mice; assay: Inflammatory cell detection in colon cryosections by fluorescence confocal microscopy; conditions: middle segment of colon, 10 mg/kg intragastric, FIG. 4
Protocol: FIG. 4 is photographs showing the photographing and analyzing results under fluorescence confocal microscopy in which, after the middle segments of colons of mice in various groups were cryosectioned, the nucleus were stained with DAPI fluorescent antibody, and the mononuclear lymphocytes were stained with anti-CD11b antibody.
(§1) 1. Mice were randomly divided into a normal control group, a model group, a cyclosporin A (CsA) (20 mg/kg) treatment group, a 5-aminosalicylic acid (5-ASA) (50 mg/kg) treatment group, and the artemisinin derivative having anti-inflammatory immunosuppressive activity SM934, SM905, SM933 and SM735 (10 mg/kg each) treatment groups, with 8 mice per group. Except for the mice in the normal control group, for the mice in the other groups including the model group, the cyclosporine A treatment group, the 5-aminosalicylic acid treatment group, and the 4 artemisinin derivative treatment groups, 5% DSS was added to the drinking water for 7 consecutive days for induction of the intestinal inflammation model.
2. […]
2. The middle segment of the colon was cryosectioned, stained with the corresponding fluorescent antibody, photographed under a fluorescence confocal microscope and analyzed.

[2] = test system: pro-inflammatory cytokines in colon tissue of DSS-induced colitis mice; assay: Detection of pro-inflammatory cytokine levels in colon tissue by ELISA; conditions: colon homogenate, per unit of total protein, 10 mg/kg intragastric, FIG. 5
Protocol: as §1
2. From the start of the induction to the end of the experiment, mice in the various treatment groups were given cyclosporine A, 5-aminosalicylic acid 5-ASA or4 artemisinin derivatives (10 mg/kg) respectively by intragastric administration to conduct a therapeutic intervention.
[IV] Detection of Pro-Inflammatory Cytokine Levels in Colon Tissue
1. […] After centrifugation, the protein concentration in the homogenate supernatant was quantified with a BCA kit.
2. ELISA was used to detect the content of pro-inflammatory cytokine in the supernatant, which was expressed as the content of cytokine per unit of total protein.

[3] = test system: macrophages and neutrophils in mesenteric lymph nodes and spleen of DSS-induced colitis mice; assay: Inflammatory cell detection by flow cytometry in mesenteric lymph nodes and spleen; conditions: 10 mg/kg intragastric, FIG. 3A and 3B
Protocol: FIG. 3 is graphs showing the results of flow cytometry analysis, in which a single cell suspension was prepared from mesenteric lymph nodes and spleen of mice in various groups taken out at the end of the experiment, and the cells were labeled with the corresponding fluorescent antibody. FIG. 3A is for the isolated mesenteric lymph node cells, and FIG. 3B is for the isolated spleen lymphocytes, they were stained withanti-F4/80 antibody+anti-CD11b antibody (double positive cells were recognized as macrophages), and with anti-Gr-1 antibody+anti-CD11 b antibody (double positive cells were identified as neutrophils) respectively.
as §1
2. […]

C[C@@H]1CCC2[C@@H](C)[C@@H](OCCN)O[C@H]3O[C@@]4(C)CCC1[C@@]23OO4 (stereo partly drawn) [SM934, β-aminoarteether maleate]
reduced: infiltration of monocytes (CD11b+ cells) in colon tissue [1] | levels of pro-inflammatory cytokines in colon tissue [2] | proportion of macrophages (F4/80+ and CD11b+ double positive cells) [3] | proportion of neutrophils (Gr-1+ and CD11b+ double positive cells) [3]
